ChEMBL document CHEMBL4033720, “Discovery of novel cyclic peptide inhibitors of dengue virus NS2B-NS3 protease with antiviral activity” (Bioorg Med Chem Lett, 2017)
Where a SMILES comes first, the peptide text is derived from it.

Experiments:
[1] = test system: dengue virus type 2; assay: Antiviral activity against dengue virus 2 infected in BHK21 cells assessed as inhibition of virus-induced cytopathic effect after 4 days by resazurin dye based method; format: functional, cell-based
[2] = Inhibition of dengue virus 2 NS2B-NS3 protease pre-incubated for 10 mins before Boc-Gly-Arg-Arg-peptidyl-4-methylcoumaryl-7-amide substrate addition and measured after 2 hrs by fluorescence based assay; parameters: species or system dengue virus type 2
[3] = Toxicity in BHK21 cells assessed a reduction in cell viability after 4 days by resazurin dye based method; parameters: species or system Mesocricetus auratus, BHK-21; details: hamster
[4] = Stability assessed as dengue virus 2 NS2B-NS3 protease-mediated compound degradation at 200 uM in presence of […] incubated for 0 to 22.5 hrs by LC-MS method; format: ADME; details: dengue virus type 2, 200 µM
[5] = Stability assessed as dengue virus 2 NS2B-NS3 protease-mediated compound degradation by measuring linear peptide with P1 C-terminus and P' N-terminus at 200 uM in presence of […] incubated for 0 to 22.5 hrs by LC-MS method; format: ADME; details: dengue virus type 2, 200 µM
[6] = Selectivity index, ratio of CC50 for toxicity in BHK21 cells to EC50 for antiviral activity against dengue virus 2 infected in BHK21 cells; format: cell-based; details: hamster, read-out: Ratio CC50/EC50
[7] = Dengue virus, BHK-21, 96 h, read-out: EC50

IC50 [2]	SMILES	further results
3.8 µM	N=C(N)NCCC[C@@H]1NC(=O)[C@H](CCCNC(=N)N)NC(=O)[C@H]2CCCN2C(=O)[C@@H](Cc2ccccc2)NC(=O)[C@H](CO)NC(=O)[C@H](Cc2ccc(-c3ccccc3)cc2)NC(=O)[C@H](CO)NC(=O)[C@H](CCCCN)NC1=O	EC50 [1, 7]: 108 µM; CC50 at 96 h [3]: > 400 µM
5 µM	N=C(N)NCCC[C@@H]1NC(=O)[C@H](CCCCN)NC(=O)CNC(=O)[C@@H](Cc2ccccc2)NC(=O)[C@H](CO)NC(=O)[C@H](CCc2ccccc2)NC(=O)[C@H](CO)NC(=O)[C@H](CCCCN)NC1=O	–
3.3 µM	C[C@H]1NC(=O)[C@@H](Cc2ccccc2)NC(=O)[C@H](CO)NC(=O)[C@H](CCc2ccccc2)NC(=O)[C@H](CO)NC(=O)[C@H](CCCCN)NC(=O)[C@H](CCCNC(=N)N)NC(=O)[C@H](CCCCN)NC1=O	–
22.2 µM	C[C@@H]1NC(=O)[C@H](CCc2ccccc2)NC(=O)[C@H](CO)NC(=O)[C@H](CCCCN)NC(=O)[C@H](CCCNC(=N)N)NC(=O)[C@H](CCCCN)NC(=O)CNC(=O)[C@H](c2ccccc2)NC1=O	–
2.6 µM	N=C(N)NCCC[C@@H]1NC(=O)[C@H](CCCCN)NC(=O)[C@H]2CCCN2C(=O)[C@@H](Cc2ccccc2)NC(=O)[C@H](CO)NC(=O)[C@H](Cc2ccc3ccccc3c2)NC(=O)[C@H](CO)NC(=O)[C@H](CCCCN)NC1=O	EC50 [1, 7]: 306 µM; CC50 at 96 h [3]: > 400 µM
15.1 µM	C[C@@H]1NC(=O)[C@H](CCc2ccccc2)NC(=O)[C@H](CO)NC(=O)[C@H](CCCCN)NC(=O)[C@H](CCCNC(=N)N)NC(=O)[C@H](CCCCN)NC(=O)CNC(=O)[C@@H](c2ccccc2)NC1=O	–
38.7 µM	C[C@@H]1NC(=O)[C@H](CS)NC(=O)[C@@H](CCc2ccccc2)NC(=O)[C@H](CO)NC(=O)[C@H](CCCCN)NC(=O)[C@H](CCCNC(=N)N)NC(=O)[C@H](CCCCN)NC(=O)CNC1=O	–
7.6 µM	C[C@@H]1NC(=O)[C@H](CCc2ccccc2)NC(=O)[C@H](CO)NC(=O)[C@H](CCCCN)NC(=O)[C@H](CCCNC(=N)N)NC(=O)[C@H](CCCCN)NC(=O)CNC(=O)[C@@H](Cc2ccccc2)NC1=O	–
52 µM	N=C(N)NCCC[C@@H]1NC(=O)[C@H](CCCCN)NC(=O)[C@@H]2CCCN2C(=O)[C@@H](Cc2ccccc2)NC(=O)[C@H](CO)NC(=O)[C@H](CCc2ccccc2)NC(=O)[C@H](CO)NC(=O)[C@H](CCCCN)NC1=O	–
1.6 µM	N=C(N)NCCC[C@@H]1NC(=O)[C@H](CCCNC(=N)N)NC(=O)[C@@H](CCCNC(=N)N)NC(=O)[C@@H](Cc2ccccc2)NC(=O)[C@H](Cc2cccc3ccccc23)NC(=O)[C@H](CCc2ccccc2)NC(=O)[C@H](CO)NC(=O)[C@H](CCCCN)NC1=O	EC50 [1, 7]: 23.2 µM; CC50 at 96 h [3]: 233 µM; Stability [4]: Unstable; Drug metabolism [5]: Metabolite_Detected
1.7 µM	N=C(N)NCCC[C@@H]1NC(=O)[C@H](CCCNC(=N)N)NC(=O)[C@@H](CCCNC(=N)N)NC(=O)[C@@H](Cc2ccc3ccccc3c2)NC(=O)[C@H](Cc2ccccc2)NC(=O)[C@H](CCc2ccccc2)NC(=O)[C@@H](Cc2ccccc2)NC(=O)[C@H](CCCCN)NC1=O	EC50 [1, 7]: 4.6 µM; CC50 at 96 h [3]: 86 µM
28.5 µM	C[C@@H]1NC(=O)[C@@H](Cc2ccccc2)NC(=O)[C@H](CO)NC(=O)[C@H](CCc2ccccc2)NC(=O)[C@H](CO)NC(=O)[C@H](CCCCN)NC(=O)[C@H](CCCNC(=N)N)NC(=O)[C@H](CCCCN)NC1=O	–
3.7 µM	N=C(N)NCCC[C@@H]1NC(=O)[C@H](CCCNC(=N)N)NC(=O)[C@@H](CCCNC(=N)N)NC(=O)[C@@H](Cc2ccccc2)NC(=O)[C@H](CO)NC(=O)[C@H](Cc2ccc(-c3ccccc3)cc2)NC(=O)[C@H](CO)NC(=O)[C@H](CCCCN)NC1=O	EC50 [1, 7]: 87.5 µM; CC50 at 96 h [3]: > 400 µM
16.2 µM	C[C@@H]1NC(=O)[C@H](CCc2ccccc2)NC(=O)[C@H](CO)NC(=O)[C@H](CCCCN)NC(=O)[C@H](CCCNC(=N)N)NC(=O)[C@H](CCCCN)NC(=O)CNC(=O)[C@@H](CCc2ccccc2)NC1=O	–
1.5 µM	N=C(N)NCCC[C@@H]1NC(=O)[C@H](CCCNC(=N)N)NC(=O)[C@@H](CCCNC(=N)N)NC(=O)[C@@H](Cc2ccccc2)NC(=O)[C@H](Cc2ccc3ccccc3c2)NC(=O)[C@H](CCc2ccccc2)NC(=O)[C@H](CO)NC(=O)[C@H](CCCCN)NC1=O	EC50 [1, 7]: 48.5 µM; CC50 at 96 h [3]: 210 µM
3.8 µM	N=C(N)NCCC[C@@H]1NC(=O)[C@H](CCCCN)NC(=O)[C@H]2CCCN2C(=O)[C@@H](Cc2ccccc2)NC(=O)[C@H](CO)NC(=O)[C@H](Cc2ccc(-c3ccccc3)cc2)NC(=O)[C@H](CO)NC(=O)[C@H](CCCCN)NC1=O	EC50 [1, 7]: 293 µM; CC50 at 96 h [3]: > 400 µM

IC50 [2]	SMILES	further results
25.6 µM	C[C@@H]1NC(=O)[C@H](CCc2ccccc2)NC(=O)[C@H](CO)NC(=O)[C@H](CCCCN)NC(=O)[C@H](CCCNC(=N)N)NC(=O)[C@H](CCCCN)NC(=O)CNC(=O)[C@H](CCc2ccccc2)NC1=O	–
2.3 µM	N=C(N)NCCC[C@@H]1NC(=O)[C@H](CCCNC(=N)N)NC(=O)[C@@H](CCCNC(=N)N)NC(=O)[C@@H](CCCNC(=N)N)NC(=O)[C@H](CO)NC(=O)[C@H](Cc2ccc(-c3ccccc3)cc2)NC(=O)[C@H](CO)NC(=O)[C@H](CCCCN)NC1=O	EC50 [1, 7]: 141 µM; CC50 at 96 h [3]: > 400 µM
1.1 µM	N=C(N)NCCC[C@@H]1NC(=O)[C@H](CCCNC(=N)N)NC(=O)[C@@H](CCCNC(=N)N)NC(=O)[C@@H](Cc2ccc3ccccc3c2)NC(=O)[C@H](Cc2ccccc2)NC(=O)[C@H](CCc2ccccc2)NC(=O)[C@@H](Cc2ccc3ccccc3c2)NC(=O)[C@H](CCCCN)NC1=O	selectivity ratio [6]: > 10; EC50 [1, 7]: 2 µM; CC50 at 96 h [3]: 24 µM
9.2 µM	C[C@@H]1NC(=O)[C@H](CS)NC(=O)[C@H](CCc2ccccc2)NC(=O)[C@H](CO)NC(=O)[C@H](CCCCN)NC(=O)[C@H](CCCNC(=N)N)NC(=O)[C@H](CCCCN)NC(=O)CNC1=O	–
0.95 µM	N=C(N)NCCC[C@@H]1NC(=O)[C@H](CCCCN)NC(=O)[C@H]2CCCN2C(=O)[C@@H](Cc2ccccc2)NC(=O)[C@H](CO)NC(=O)[C@H](CCc2ccccc2)NC(=O)[C@H](CO)NC(=O)[C@H](CCCCN)NC1=O	EC50 [1]: Not Active; Stability [4]: Unstable
19.8 µM	C[C@@H]1NC(=O)[C@H](CCc2ccccc2)NC(=O)[C@H](CO)NC(=O)[C@H](CCCCN)NC(=O)[C@H](CCCNC(=N)N)NC(=O)[C@H](CCCCN)NC(=O)CNC(=O)[C@H](Cc2ccccc2)NC1=O	–
57.4 µM	C[C@@H]1NC(=O)CNC(=O)[C@H](CO)NC(=O)[C@H](CCCCN)NC(=O)[C@H](CCCNC(=N)N)NC(=O)[C@H](CCCCN)NC(=O)CNC(=O)[C@H](C)NC1=O (HELM PEPTIDE1{A.A.G.K.R.K.S.G}$PEPTIDE1,PEPTIDE1,1:R1-8:R2$$$V2.0)	–
18.4 µM	C[C@@H]1NC(=O)[C@H](C)NC(=O)[C@H](CCc2ccccc2)NC(=O)[C@H](CO)NC(=O)[C@H](CCCCN)NC(=O)[C@H](CCCNC(=N)N)NC(=O)[C@H](CCCCN)NC(=O)CNC1=O (HELM PEPTIDE1{A.A.G.K.R.K.S.[O=C([C@H](CCc1ccccc1)N[*:1])[*:2]]}$PEPTIDE1,PEPTIDE1,1:R1-8:R2$$$V2.0)	–
> 200 µM	C[C@@H]1NC(=O)CNC(=O)[C@H](C)NC(=O)[C@H](CS)NC(=O)CNC(=O)[C@H](CO)NC(=O)[C@H](CCCCN)NC(=O)[C@H](CCCNC(=N)N)NC1=O (HELM PEPTIDE1{A.G.A.R.K.S.G.C}$PEPTIDE1,PEPTIDE1,1:R1-8:R2$$$V2.0)	–
> 200 µM	C[C@@H]1NC(=O)[C@H](CS)NC(=O)CNC(=O)[C@H](C)NC(=O)[C@H](CCCCN)NC(=O)[C@H](CCCNC(=N)N)NC(=O)[C@H](CCCCN)NC(=O)CNC1=O (HELM PEPTIDE1{A.G.C.A.G.K.R.K}$PEPTIDE1,PEPTIDE1,1:R1-8:R2$$$V2.0)	–
> 200 µM	C[C@@H]1NC(=O)[C@H](CS)NC(=O)CNC(=O)[C@H](CO)NC(=O)[C@H](CCCCN)NC(=O)[C@H](C)NC(=O)[C@H](CCCCN)NC(=O)CNC1=O (HELM PEPTIDE1{A.G.K.A.K.S.G.C}$PEPTIDE1,PEPTIDE1,1:R1-8:R2$$$V2.0)	–
> 200 µM	C[C@@H]1NC(=O)[C@H](CS)NC(=O)CNC(=O)[C@H](CO)NC(=O)[C@H](C)NC(=O)[C@H](CCCNC(=N)N)NC(=O)[C@H](CCCCN)NC(=O)CNC1=O (HELM PEPTIDE1{A.G.K.R.A.S.G.C}$PEPTIDE1,PEPTIDE1,1:R1-8:R2$$$V2.0)	–
39.3 µM	C[C@@H]1NC(=O)[C@H](CS)NC(=O)[C@H](Cc2ccccc2)NC(=O)[C@H](CO)NC(=O)[C@H](CCCCN)NC(=O)[C@H](CCCNC(=N)N)NC(=O)[C@H](CCCCN)NC(=O)CNC1=O (HELM PEPTIDE1{A.G.K.R.K.S.F.C}$PEPTIDE1,PEPTIDE1,1:R1-8:R2$$$V2.0)	–
114 µM	C[C@@H]1NC(=O)[C@H](CS)NC(=O)CNC(=O)[C@H](CO)NC(=O)[C@H](CCCCN)NC(=O)[C@H](CCCNC(=N)N)NC(=O)[C@H](CCCCN)NC(=O)CNC1=O (HELM PEPTIDE1{A.G.K.R.K.S.G.C}$PEPTIDE1,PEPTIDE1,1:R1-8:R2$$$V2.0)	–
22.1 µM	C[C@@H]1NC(=O)[C@H](CS)NC(=O)[C@H](c2ccccc2)NC(=O)[C@H](CO)NC(=O)[C@H](CCCCN)NC(=O)[C@H](CCCNC(=N)N)NC(=O)[C@H](CCCCN)NC(=O)CNC1=O (HELM PEPTIDE1{A.G.K.R.K.S.[Phg].C}$PEPTIDE1,PEPTIDE1,1:R1-8:R2$$$V2.0)	–
